Read-outs that look alike come from different tables or passages of the source.
System: MRI-H-254 tumors
Assay type: in vivo, mice
Settings: for % T/C on day 20 / % T/C on day 23 / % T/C on day 26 / % T/C on day 30 / % T/C on day 34 / % T/C on day 36 / % T/C on day 43 / % T/C on day 49 / % T/C on day 56 / % T/C on day 63: PM00104 0.90 IV, DPI 20, 27, 34
Procedure: Female athymic nude mice (Harlan Sprague Dawley, Madison, Wis.) were utilized for all experiments. Animals were housed in ventilated rack caging with food and water ad libitum. The mice were acclimated for at least 5 days prior to tumor implantation with tumor fragments.
Bacterial culture was taken on cells used to implant the study.
Treatments were initiated on DPI 20.
5-FU was provided in the form of injection vials which was diluted with 0.9% sterile Saline.
Tumor size measurements were recorded twice weekly from the treatment initiation until the termination of the study.
Mean, standard deviation and standard error of the mean were determined for tumor volume for all animal groups at all assessments. Student's t test was performed on tumor volumes at each measurement day, including at the end of the study, to determine whether there were any statistically significant differences between combination treatment groups and single monotherapy treatment groups.

[1] = 5-FU 100 IP mg/kg/day (G2, G3, G5)

O=c1[nH]cc(F)c(=O)[nH]1 [5-FU, 5-fluorouracil]
% T/C on day 20 (5-FU 50 IP mg/kg/day (G4, G6)): 96.0%
% T/C on day 23 (5-FU 50 IP mg/kg/day (G4, G6)): 52.3%
% T/C on day 26 (5-FU 50 IP mg/kg/day (G4, G6)): 47.9%
% T/C on day 30 (5-FU 50 IP mg/kg/day (G4, G6)): 55.3%
% T/C on day 34 (5-FU 50 IP mg/kg/day (G4, G6)): 45.0%
% T/C on day 36 (5-FU 50 IP mg/kg/day (G4, G6)): 45.7%
% T/C on day 43 (5-FU 50 IP mg/kg/day (G4, G6)): 58.1%
% T/C on day 49 (5-FU 50 IP mg/kg/day (G4, G6)): 100.0%
% T/C on day 56 (5-FU 50 IP mg/kg/day (G4, G6)): 117.6%
% T/C on day 63 (5-FU 50 IP mg/kg/day (G4, G6)): 123.9%
% T/C on day 20 [1]: 101.8%
% T/C on day 23 [1]: 55.2%
% T/C on day 26 [1]: 47.1%
% T/C on day 30 [1]: 36.3%
% T/C on day 34 [1]: 31.6%
% T/C on day 36 [1]: 23.0%
% T/C on day 43 [1]: 30.9%
% T/C on day 49 [1]: 54.6%
% T/C on day 56 [1]: 96.3%
% T/C on day 63 [1]: 107.8%
% Inhibition (day 20, PM00104 0.9 and 5-FU 50 mg/kg/day): 4.0%
% Inhibition (day 20, PM00104 0.9 and 5-FU 100 mg/kg/day): −1.8%
% Inhibition (day 23, PM00104 0.9 and 5-FU 50 mg/kg/day): 47.7%
% Inhibition (day 23, PM00104 0.9 and 5-FU 100 mg/kg/day): 44.8%
% Inhibition (day 26, PM00104 0.9 and 5-FU 50 mg/kg/day): 52.1%
% Inhibition (day 26, PM00104 0.9 and 5-FU 100 mg/kg/day): 52.9%
% Inhibition (day 30, PM00104 0.9 and 5-FU 50 mg/kg/day): 44.7%
% Inhibition (day 30, PM00104 0.9 and 5-FU 100 mg/kg/day): 63.7%
% Inhibition (day 34, PM00104 0.9 and 5-FU 50 mg/kg/day): 55.0%
% Inhibition (day 34, PM00104 0.9 and 5-FU 100 mg/kg/day): 68.4%
% Inhibition (day 36, PM00104 0.9 and 5-FU 50 mg/kg/day): 54.3%
% Inhibition (day 36, PM00104 0.9 and 5-FU 100 mg/kg/day): 77.0%
% Inhibition (day 43, PM00104 0.9 and 5-FU 50 mg/kg/day): 41.9%
% Inhibition (day 43, PM00104 0.9 and 5-FU 100 mg/kg/day): 69.1%
% Inhibition (day 49, PM00104 0.9 and 5-FU 50 mg/kg/day): 0.0%
% Inhibition (day 49, PM00104 0.9 and 5-FU 100 mg/kg/day): 45.4%
% Inhibition (day 56, PM00104 0.9 and 5-FU 50 mg/kg/day): −17.6%
% Inhibition (day 56, PM00104 0.9 and 5-FU 100 mg/kg/day): 3.7%
% Inhibition (day 63, PM00104 0.9 and 5-FU 50 mg/kg/day): −23.9%
% Inhibition (day 63, PM00104 0.9 and 5-FU 100 mg/kg/day): −7.8%
